Measurements from ChEMBL document CHEMBL3286118, “Synthesis and in vitro antitumor activity of novel 2-alkyl-5-methoxycarbonyl-11-methyl-6H-pyrido[4,3-b]carbazol-2-ium and 2-alkylellipticin-2-ium chloride derivatives” (Eur J Med Chem, 2014).

Assay: Cytotoxicity against human HeLaS3 cells assessed as cell viability after 24 to 72 hrs by MTT assay
Type: functional, cell-based
Details: HeLa S3

## Cc1c2c[n+](CCCCCN)ccc2c(C)c2c1c1cc(O)ccc1n2C
  IC50: 19.3 µM

## COC(=O)c1c2cc[n+](CCOCCN)cc2c(C)c2c1[nH]c1ccccc12
  IC50: 41.3 µM

## Cc1c2c[n+](CCOCCN)ccc2c(C)c2c1c1cc(O)ccc1n2C
  IC50: 17.9 µM

## Cc1c2cc[n+](CCOCCN)cc2c(C)c2c1[nH]c1ccccc12
  IC50: 27.8 µM

## Cc1c2cc[n+](CCOCCN)cc2c(C)c2c1[nH]c1ccc(O)cc12
  IC50: 17.7 µM

## Cc1c2cc[n+](C)cc2c(C)c2c1[nH]c1ccccc12
  IC50: 2.9 µM

## CNC(=O)NCCOCC[n+]1ccc2c(C)c3[nH]c4ccccc4c3c(C)c2c1
  IC50: 75.3 µM

## CNC(=O)NCCOCC[n+]1ccc2c(C)c3[nH]c4ccc(O)cc4c3c(C)c2c1
  IC50: 29.4 µM

## CNC(=O)NCCOCC[n+]1ccc2c(C)c3c(c(C)c2c1)c1cc(O)ccc1n3C
  IC50: 6.2 µM

## CNC(=O)NCCCCC[n+]1ccc2c(C)c3c(c(C)c2c1)c1cc(O)ccc1n3C
  IC50: 32.5 µM

## COC(=O)c1c2cc[n+](CCOCCNC(=O)N(C)N=O)cc2c(C)c2c1[nH]c1ccccc12
  IC50: 51.9 µM

## Cc1c2cc[n+](CCOCCNC(=O)N(C)N=O)cc2c(C)c2c1[nH]c1ccc(O)cc12
  IC50: 60 µM

## Cc1c2c[n+](CCOCCNC(=O)N(C)N=O)ccc2c(C)c2c1c1cc(O)ccc1n2C
  IC50: 18.4 µM

## COC(=O)c1c2cc[n+](CCN)cc2c(C)c2c1[nH]c1ccccc12
  IC50: 5.8 µM

## COC(=O)c1c2cc[n+](CCCN)cc2c(C)c2c1[nH]c1ccccc12
  IC50: 2.5 µM

## CNC(=O)NCC[n+]1ccc2c(C(=O)OC)c3[nH]c4ccccc4c3c(C)c2c1
  IC50: 6.6 µM

## COC(=O)c1c2cc[n+](CCNC(=O)N(C)N=O)cc2c(C)c2c1[nH]c1ccccc12
  IC50: 15 µM

## CNC(=O)NCCC[n+]1ccc2c(C(=O)OC)c3[nH]c4ccccc4c3c(C)c2c1
  IC50: 24 µM

## COC(=O)c1c2cc[n+](CCCNC(=O)N(C)N=O)cc2c(C)c2c1[nH]c1ccccc12
  IC50: 1.3 µM

## Cc1c2ccncc2c(C)c2c1[nH]c1ccccc12 [ELLIPTECINE]
  IC50: 2.1 µM

## CN(N=O)C(N)=O [N-METHYL-N-NITROSUREA]
  IC50: > 100 µM
